The values below come from patent US20150045367A1, “CINNAMIC ACID HYDROXYAMIDES AS INHIBITORS OF HISTONE DEACETYLASE 8” (PHARMACYCLICS, INC., priority 2011, published 2015).

In one assay the target is T1, HDAC8 (Homo sapiens, UniProt Q9BY41).
T1 sequence (Q9BY41 1-377): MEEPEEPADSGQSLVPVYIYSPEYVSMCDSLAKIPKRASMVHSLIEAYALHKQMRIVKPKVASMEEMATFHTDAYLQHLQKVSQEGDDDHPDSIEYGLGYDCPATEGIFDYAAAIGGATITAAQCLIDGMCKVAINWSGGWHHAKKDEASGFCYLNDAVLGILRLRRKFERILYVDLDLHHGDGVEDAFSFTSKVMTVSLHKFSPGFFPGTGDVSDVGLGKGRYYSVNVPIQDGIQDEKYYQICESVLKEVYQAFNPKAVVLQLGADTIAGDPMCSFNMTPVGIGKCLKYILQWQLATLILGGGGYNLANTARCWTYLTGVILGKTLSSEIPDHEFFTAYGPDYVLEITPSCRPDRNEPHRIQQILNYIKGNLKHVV
As to the kind of experiment: Histone deacetylase activity, continuous trypsin-coupled assay. It counts as biochemical. The following applies: trypsin-coupled fluorescence assay, acetyl-Gly-Ala-(N-acetyl-Lys)-AMC substrate. As for the experimental part: (§1) HDAC activity is measured using a continuous trypsin-coupled assay that has been described in detail previously (US 20070281934; Schultz et. al., Biochemistry, 43 (34), 11083-11091, 2004; Kim et al. (2006), Methods Mol. Biol., 325:273-283). For inhibitor characterization, measurements are performed in a reaction volume of 100 µL using 96-well assay plates in a fluorescence plate reader. For each isozyme, the HDAC protein in reaction buffer (50 mM HEPES, 100 mM KCl, 0.001% Tween-20, 5% DMSO, pH 7.4, supplemented with bovine serum albumin at concentrations of 0-0.05%, is mixed with inhibitor at various concentrations and allowed to incubate for 15 minutes. Trypsin is added to a final concentration of 50 nM, and acetyl-Gly-Ala-(N-acetyl-Lys)-AMC is added to a final concentration of 25-100 μM to initiate the reaction. After a 30 minute lag time, the fluorescence is measured over a 30 minute time frame using an excitation wavelength of 355 nm and a detection wavelength of 460 nm. The increase in fluorescence with time is used as the measure of the reaction rate. Inhibition constants Ki(app) were obtained using the program BatchKi (Biokin, Pullman, Wash.).

Another assay concerns the target HDAC1 (Homo sapiens, UniProt Q13547). The description is as above. The format is biochemical. The settings on record: trypsin-coupled fluorescence assay, acetyl-Gly-Ala-(N-acetyl-Lys)-AMC substrate. As for the experimental part: as §1
The target in another assay is T2, HDAC6 (Homo sapiens, UniProt Q9UBN7).
T2 sequence (Q9UBN7 1-1215): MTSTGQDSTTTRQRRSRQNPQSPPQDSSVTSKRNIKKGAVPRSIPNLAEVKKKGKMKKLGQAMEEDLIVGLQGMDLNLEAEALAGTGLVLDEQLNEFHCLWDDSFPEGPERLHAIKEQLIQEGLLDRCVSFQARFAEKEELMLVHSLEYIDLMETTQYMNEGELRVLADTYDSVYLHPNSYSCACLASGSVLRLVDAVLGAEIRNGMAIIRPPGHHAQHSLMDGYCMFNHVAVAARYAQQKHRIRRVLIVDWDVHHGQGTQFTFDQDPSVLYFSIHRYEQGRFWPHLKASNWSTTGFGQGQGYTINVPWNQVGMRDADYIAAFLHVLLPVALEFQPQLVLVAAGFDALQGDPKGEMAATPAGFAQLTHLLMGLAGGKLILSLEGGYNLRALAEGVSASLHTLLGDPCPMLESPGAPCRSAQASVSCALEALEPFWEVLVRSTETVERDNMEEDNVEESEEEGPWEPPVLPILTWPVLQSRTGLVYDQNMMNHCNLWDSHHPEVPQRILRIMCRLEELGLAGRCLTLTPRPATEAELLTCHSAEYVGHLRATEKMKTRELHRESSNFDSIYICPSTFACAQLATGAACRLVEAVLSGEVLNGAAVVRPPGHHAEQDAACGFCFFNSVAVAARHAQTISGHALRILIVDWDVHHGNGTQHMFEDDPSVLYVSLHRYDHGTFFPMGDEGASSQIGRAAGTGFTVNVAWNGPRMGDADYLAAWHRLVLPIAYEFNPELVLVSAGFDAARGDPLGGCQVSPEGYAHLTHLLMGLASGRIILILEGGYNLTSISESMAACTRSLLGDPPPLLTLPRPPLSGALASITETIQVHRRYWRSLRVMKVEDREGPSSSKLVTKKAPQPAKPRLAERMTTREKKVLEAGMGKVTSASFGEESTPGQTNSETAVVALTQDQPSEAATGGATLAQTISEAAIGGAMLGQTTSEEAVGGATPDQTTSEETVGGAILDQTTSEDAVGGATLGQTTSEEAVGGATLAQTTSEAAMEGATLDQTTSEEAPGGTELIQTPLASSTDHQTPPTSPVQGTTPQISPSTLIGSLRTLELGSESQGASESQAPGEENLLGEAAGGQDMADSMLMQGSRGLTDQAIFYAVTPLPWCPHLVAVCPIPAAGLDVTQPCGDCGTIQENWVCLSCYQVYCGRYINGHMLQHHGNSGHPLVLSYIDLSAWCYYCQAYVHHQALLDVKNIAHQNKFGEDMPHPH
The assay is described as above. The following applies: trypsin-coupled fluorescence assay, acetyl-Gly-Ala-(N-acetyl-Lys)-AMC substrate. It counts as biochemical. As for the experimental part: as §1

The test system of another assay is Jurkat cells. As to the kind of experiment: Cell proliferation assay, growth inhibition by Alamar Blue. It counts as cell-based. The settings on record: Homo sapiens, 72 h, treated with compound for 3 days. The procedure:
Cell lines are obtained from DSMZ (Braunschweig, Germany) or ATCC (Manassas, Va.). Cells are grown in RPMI 1640 with 10% fetal bovine serum in a 5% CO2/air incubator at 37° C. Thapsigargin and BAPTA-AM are from Calbiochem (San Diego, Calif.). 3-((dimethylamino)methyl)-N-(2-(4-(hydroxycarbamoyl)phenoxy)ethyl)benzofuran-2-carboxamide is a broad-spectrum HDAC inhibitor which was synthesized as previously described. Other analogs with varying degrees of specificity towards the HDAC isoforms are synthesized as described herein.
Tumor cell lines and human umbilical vein endothelial cells (HUVEC) are cultured for at least two doubling times, and growth is monitored at the end of compound exposure using an Alamar Blue™ (Biosource, Camarillo, Calif.) fluorometric cell proliferation assay as recommended by the manufacturer. Compounds are assayed in triplicate wells in 96-well plates. The concentration required to inhibit cell growth by 50% (GI50) and 95% confidence intervals are estimated from nonlinear regression using a 4-parameter logistic equation. The effect of HDAC8 selective inhibitor compounds on cell proliferation in Jurkat cells is measured. Apoptosis is measured by Annexin-V flow cytommetry. Growth inhibiton iss measured by Alamar Blue assay. Cells are treated with compound for 3 days.

A value given as a limit tells only on which side of the number the result lay.

Chain of HDAC1 (Q13547 whole entry): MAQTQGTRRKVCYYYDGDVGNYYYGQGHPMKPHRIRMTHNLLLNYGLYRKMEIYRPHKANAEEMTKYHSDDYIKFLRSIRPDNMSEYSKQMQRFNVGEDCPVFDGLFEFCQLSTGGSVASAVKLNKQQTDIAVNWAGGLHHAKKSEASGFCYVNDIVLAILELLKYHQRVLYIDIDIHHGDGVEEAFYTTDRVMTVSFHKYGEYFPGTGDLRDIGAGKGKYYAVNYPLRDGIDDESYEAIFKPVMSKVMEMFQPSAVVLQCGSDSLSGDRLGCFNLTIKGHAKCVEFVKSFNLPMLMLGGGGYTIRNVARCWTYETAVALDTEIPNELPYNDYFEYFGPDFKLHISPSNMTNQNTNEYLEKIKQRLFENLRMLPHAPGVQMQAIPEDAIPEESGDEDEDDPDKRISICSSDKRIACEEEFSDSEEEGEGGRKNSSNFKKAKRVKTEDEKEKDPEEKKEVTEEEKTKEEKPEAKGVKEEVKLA

In the case of `O=C(/C=C/c1ccccc1Oc1ccc(Cl)c(Cl)c1)NO` [Compound 12, (E)-3-(2-(3,4-Dichlorophenoxy)phenyl)-N-hydroxyacrylamide], the values for the IC50 against HDAC8, on HDAC1 and at HDAC6 were no more than 0.1 µM, 1 to 10 µM and 1 to 10 µM, respectively. Moreover, the GI50 with Jurkat cells worked out at 1.8 µM.

The term IC50 denotes the point on the concentration scale where inhibition reaches its midpoint. A high value points to weaker potency. One may read the GI50 as the concentration at which growth is held to half of that of the control.
